A value given as a limit tells only on which side of the number the result lay.

Here are results for 7 molecules from patent US20220185832A1, “CD73 INHIBITORS” (BioArdis LLC, priority 2019, published 2022).

For test [1], the target named is T1, Cell surface CD73 of U87 MG human glioblastoma cells (Homo sapiens, UniProt P21589).
T1 construct: Cell surface CD73 catalyzes the conversion of adenosine monophosphate (AMP) to adenosine and inorganic phosphate; endogenous in cells; host or cells: U87 MG human glioblastoma cells
T1 sequence (P21589 27-549): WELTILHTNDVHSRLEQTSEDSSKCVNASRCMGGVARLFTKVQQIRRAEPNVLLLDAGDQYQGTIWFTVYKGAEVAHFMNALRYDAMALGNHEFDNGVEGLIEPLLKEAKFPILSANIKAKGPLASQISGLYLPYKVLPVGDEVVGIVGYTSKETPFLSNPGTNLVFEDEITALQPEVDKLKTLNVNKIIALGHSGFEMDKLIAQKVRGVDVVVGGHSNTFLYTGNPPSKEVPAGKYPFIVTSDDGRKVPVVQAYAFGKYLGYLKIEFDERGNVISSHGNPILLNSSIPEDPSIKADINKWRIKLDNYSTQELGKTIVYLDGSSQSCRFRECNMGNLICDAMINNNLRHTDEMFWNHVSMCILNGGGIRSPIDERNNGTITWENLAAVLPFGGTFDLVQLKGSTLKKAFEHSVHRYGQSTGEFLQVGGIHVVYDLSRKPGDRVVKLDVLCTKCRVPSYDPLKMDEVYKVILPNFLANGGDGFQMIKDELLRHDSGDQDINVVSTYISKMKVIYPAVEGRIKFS
Kind of test: CD73 Cellular Assay. The class given is cell-based. The conditions noted are these: 5000 cells per well, 30 μM AMP, PiColorLock phosphate detection in supernatant, read-out: Potency (IC50). As for the experimental part: Cell surface CD73 catalyzes the conversion of adenosine monophosphate (AMP) to adenosine and inorganic phosphate. U87 MG human glioblastoma cells express high level of CD73. Cells are treated with compounds in a 96-well assay plate and supernatants are collected into a 384-well detection plate. The concentration of inorganic phosphate (Pi) in the supernatants is determined using the phosphate detection reagent, PiColorLock™ (Innova Bioscience, Cat #303-0125) following the manufacturer's instructions.
Briefly, on the day of the assay, U87 MG cells were harvested and resuspended in assay buffer which consisted of 20 mM HEPES, pH=7.4, 137 mM NaCl, 5.4 mM KCl, 1.3 mM CaCl2, 4.2 mM NaHCO3 and 0.1% glucose. To test the effect of compounds on cellular CD73 enzymatic activity, 500 nL/well of compounds dissolved in DMSO were added to a 96-well TC-treated microplate (Corning #3599). Next, 80 μL/well of U87 MG cells in assay buffer were added to assay plate. After 30 minutes of incubation in an atmosphere of 5% CO2 at 37° C., 20 μL/well of 150 μM AMP (Adenosine 5′-monophosphate monohydrate, Sigma, Cat #01930) in assay buffer was added to assay plate. Final assay conditions consisted of 5000 cells per well in 0.5% DMSO and 30 μM AMP substrate. After 50 minutes of incubation in an atmosphere of 5% CO2 at 37° C., 50 μL/well of supernatant was transferred to the 384-well detection plate (Corning® NBSTM 384 well plates, Cat #3640). Meanwhile “Gold mix” was prepared shortly before use by adding 1/100 volume of accelerator to the PiColorLock™ Gold reagent. 12 μL/well of the “Gold mix” was added to detection plate containing 50 μL/well of supernatant and incubated at 25° C. for 5 minutes. 5 μL/well stabilizer was added to the detection plate and incubated at 25° C. for 30 minutes. The absorbance at 635 nm was measured on a Spark 10M instrument (TECAN).
The percent (%) inhibition at each concentration of a compound was calculated relative to the OD value in the Max and Min control wells contained within each assay plate. The Max control wells contained cells and substrate as 0% inhibition, and the Min control wells only contained cells as 100% inhibition. The concentrations and percent inhibition values for a test compound are plotted and the concentration of the compound required to achieve 50% inhibition (IC50) was determined with a four-parameter logistic dose response equation.

In test [2] the target is T2, Recombinant Human 5′-Nucleotidase (CD73) (Homo sapiens, UniProt P21589).
T2 construct: CHO derived CD73 (Trp27-Lys547), with a C-terminal 6-His tag; 6-His (C); purchased R&D 5795-EN; host or cells: CHO
T2 sequence (P21589 27-547): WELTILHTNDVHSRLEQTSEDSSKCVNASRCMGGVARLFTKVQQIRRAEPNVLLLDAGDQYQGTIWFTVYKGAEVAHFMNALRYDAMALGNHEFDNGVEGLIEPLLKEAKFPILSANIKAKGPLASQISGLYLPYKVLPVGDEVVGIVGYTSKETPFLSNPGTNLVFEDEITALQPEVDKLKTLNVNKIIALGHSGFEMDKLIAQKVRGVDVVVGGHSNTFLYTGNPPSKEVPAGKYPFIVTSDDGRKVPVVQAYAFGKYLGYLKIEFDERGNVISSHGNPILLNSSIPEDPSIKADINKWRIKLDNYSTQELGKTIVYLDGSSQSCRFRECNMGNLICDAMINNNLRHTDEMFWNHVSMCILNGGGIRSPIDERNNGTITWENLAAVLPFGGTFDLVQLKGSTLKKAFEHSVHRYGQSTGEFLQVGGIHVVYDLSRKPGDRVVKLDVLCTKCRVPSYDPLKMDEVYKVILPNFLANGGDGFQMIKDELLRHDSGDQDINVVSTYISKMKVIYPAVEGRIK
Kind of test: CD73 Enzyme Assay. It is filed as biochemical. The conditions noted are these: 0.5 nM human CD73, 30 μM AMP, PiColorLock phosphate detection, OD 635 nm; read-out: Potency (IC50). Put shortly: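 CHO-derived human CD73 (Trp27-Lys547, C-terminal His tag; 0.5 nM) preincubated with compound 15 min at 25° C in Tris pH 7.5 with MgCl2 and Tween-20. Reaction with 30 μM AMP ran 20 min at 37° C; released phosphate read by malachite green at 635 nm, IC50 from 4-parameter logistic fit.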

By IC50 is commonly meant the midpoint of a concentration-inhibition curve. In the case of `C=Cc1nc(NCc2ccccc2)c2ccc([C@@H]3O[C@H](COP(=O)(O)CP(=O)(O)O)[C@@H](O)[C@H]3O)cc2n1` [Compound 18, [({[(2R,3S,4R,5S)-5-[4-(benzylamino)-2-ethenylquinazolin-7-yl]-3,4-dihydroxyoxolan-2-yl]methoxy}(hydroxy)phosphoryl)methyl]phosphonic acid], the IC50 in test [1] was less than 10 nM; in test [2] it was 10 to 99 nM.

As to `O=P(O)(O)CP(=O)(O)OC[C@H]1O[C@@H](c2ccc3c(NC4CCOC4)nc(Cl)nc3c2)[C@H](O)[C@@H]1O` (stereo partly drawn) [Compound 22, (((((2R,3S,4R,5S)-5-(2-chloro-4-((tetrahydrofuran-3-yl)amino)quinazolin-7-yl)-3,4-dihydroxytetrahydrofuran-2-yl)methoxy)(hydroxy)phosphoryl)methyl)phosphonic acid], the IC50 in test [1] and in test [2] was less than 10 nM throughout.

With `O=P(O)(O)CP(=O)(O)OC[C@H]1O[C@@H](c2ccc3c(NCc4ccccc4Cl)nc(Cl)nc3c2)[C@H](O)[C@@H]1O` [Compound 23, (((((2R,3S,4R,5S)-5-(2-chloro-4((2-chlorobenzyl)amino)quinazolin-7-yl)-3,4-dihydroxytetrahydrofuran-2-yl)methoxy)(hydroxy)phosphoryl)methyl)phosphonic acid], the half-inhibitory concentration (IC50) in test [1] and in test [2] was less than 10 nM each time.

For the molecule `O=P(O)(O)CP(=O)(O)OC[C@H]1O[C@@H](c2ccc3c(NC4CCc5ccccc54)nc(Cl)nc3c2)[C@H](O)[C@@H]1O` (stereo partly drawn) [Compound 25, [({[(2R,3S,4R,5S)-5-[2-chloro-4-(2,3-dihydro-1H-inden-1-ylamino)quinazolin-7-yl]-3,4-dihydroxyoxolan-2-yl]methoxy}(hydroxy)phosphoryl)methyl]phosphonic acid], the IC50 in test [1] and in test [2] was less than 10 nM throughout.

Consider `O=P(O)(O)CP(=O)(O)OC[C@H]1O[C@@H](c2ccc3c(NCC4CCCC(O)C4)nc(Cl)nc3c2)[C@H](O)[C@@H]1O` (stereo partly drawn) [Compound 28, (((((2R,3S,4R,5S)-5-(2-chloro-4-(((3-hydroxycyclohexyl)methyl)amino)quinazolin-7-yl)-3,4-dihydroxytetrahydrofuran-2-yl)methoxy)(hydroxy)phosphoryl)methyl)phosphonic acid], for which the figures for the 50% inhibitory concentration (IC50) in test [1] and in test [2] were 100 to 999 nM and less than 10 nM, respectively.

Turning to `O=P(O)(O)CP(=O)(O)OC[C@H]1O[C@@H](c2ccc3c(NC4CCCCC4)nc(Cl)nc3c2)[C@H](O)[C@@H]1O` [Compound 31, (((((2R,3S,4R,5S)-5-(2-chloro-4-(cyclohexylamino)quinazolin-7-yl)-3,4-dihydroxytetrahydrofuran-2-yl)methoxy)(hydroxy)phosphoryl)methyl)phosphonic acid], the IC50 in test [1] and in test [2] was less than 10 nM each time.

In the case of `O=P(O)(O)CP(=O)(O)OC[C@H]1O[C@@H](c2ccc3c(NC4CCCC4)ncnc3c2)[C@H](O)[C@@H]1O` [Compound 46, [({[(2R,3S,4R,5S)-5-[4-(cyclopentylamino)quinazolin-7-yl]-3,4-dihydroxyoxolan-2-yl]methoxy}(hydroxy)phosphoryl)methyl]phosphonic acid], the IC50 in test [1] is greater than 1000 nM; in test [2], less than 10 nM.
